This note sets out measurements from ChEMBL document CHEMBL1138350, “Allosteric modulation of the dopamine receptor by conformationally constrained type VI beta-turn peptidomimetics of Pro-Leu-Gly-NH2” (J Med Chem, 2007).

Holding throughout (assay type): cell membranes
Common to all, as to conditions: Striatum

Assay [1] is filed under the species Bos taurus. Briefly: Enhancement of [3H]NPA binding to dopamine receptor in bovine striatal membrane at 100 nM.
The species named for assay [2] is Bos taurus. Briefly: Enhancement of [3H]NPA binding to dopamine receptor in bovine striatal membrane at 10 nM.
Assay [3] is filed under the species Bos taurus. As to the kind of experiment: Enhancement of [3H]NPA binding to dopamine receptor in bovine striatal membrane at 1 uM.

Active and inactive are the calls of the source. No cut-off for these calls is given here. Peptide text beside a SMILES is read from it.

With `NC(=O)[C@@H]1CCCN1C(=O)[C@@H]1CCCN1C(=O)[C@@H]1CCCN1` (H-Pro-Pro-Pro-NH2), in the assay listed under Bos taurus [1], the Activity is 34%.
For `CC(C)C[C@@]1(NC(=O)[C@@H]2CCCN2)CC[C@@]2(C(N)=O)CCCN2C1=O`, the Activity in the assay filed under Bos taurus [1] amounted to 19.5%. The result in the assay listed under Bos taurus [2] and in the assay listed under Bos taurus [3] was Active.
Turning to `NC(=O)[C@]12CCCN1C(=O)[C@@]1(CCCN1C(=O)[C@@H]1CCCN1)CC2`, in the assay filed under Bos taurus [2], the Activity turned out to be 11.4%.
For the compound `NC(=O)[C@H]1CS[C@@H]2CC[C@]3(CCCN3C(=O)[C@@H]3CCCN3)C(=O)N12`, the Activity in the assay filed under Bos taurus [1] is 38.2%.
